Test results from patent US6887869B2, “Mikanolide derivatives, their preparation and therapeutic uses” (Societe de Conseils de Recherches et d'Applications …, priority 2001, dated 2005).

Columns and labels:
[1] = test system: Mia-PaCa2 (human pancreatic cancer cells); experiment: Measurement of cell proliferation (WST1), Mia-PaCa2; assay type: cell-based; conditions: MIA PaCa-2, Mia-Paca2, 96 hours treatment, read-out: IC50 inhibitory concentration, proliferation of Mia-Paca2 cell lines
Procedure: (§1) DU-145 (human prostate cancer cells), HT29 (cancer of the colon) and Mia-PaCa2 (human pancreatic cancer cells) were acquired from the American Tissue Culture Collection (Rockville, Md., USA).
(§2) Measurement of Cell Proliferation
(§3) The cells placed in 80 μl of Dulbecco's modified Eagle medium (Gibco-BRL, Cergy-Pontoise, France) completed with 10% of foetal calf serum inactivated by heating (Gibco-BRL, Cergy-Pontoise, France), 50000 units/l of penicillin and 50 mg/l streptomycin (Gibco-BRL, Cergy-Pontoise, France), and 2 mM of glutamine (Gibco-BRL, Cergy-Pontoise, France) were seeded on a 96-well plate on day 0. The cells were treated on day 1 for 96 hours with increasing concentrations of each of the compounds to be tested. At the end of the of this period, quantification of the cell proliferation is evaluated by a calorimetric test based on the cleavage of the tetrazolium salt WST1 by mitochondrial dehydrogenases in viable cells leading to the formation of formazan (Boehringer Mannheim, Meylan, France). These tests are carried out in duplicate with 8 determinations per concentration tested. The products are solubilised in dimethylsulphoxide (DMSO) at 10^−2 M and finally used in culture with 0.5% DMSO.

[2] = test system: DNA polymerase of E. Coli (Klenow DNA polymerase enzyme); experiment: Incorporation of deoxycytidine 5'-[alpha32P]-triphosphate into a DNA in the presence of DNA polymerase in an acellular system; assay type: biochemical; conditions: concentration 100 μg/ml; labelled dCTP, 10 minutes at 37°, vs control
Procedure: Incorporation of Deoxycytidine 5′-[alpha^32P]-triphosphate into a DNA in the Presence of DNA Polymerase in an Acellular System
Labelling of the DNA is carried out on a DNA fragment which incorporates nucleotides by way of the activity of the DNA polymerase enzyme. From these nucleotides, the dCTP is labelled with radioactive phosphorus (^32P).
Plasmidal DNA (pc DNA 3, invitrogen, Netherlands) is diluted to a concentration of 2 ng in 45 μl of TE solution (10 mM Tris-HCl, pH 8, 1 mM EDTA) and denatured by heating to 100° C. for 10 minutes before being replaced directly in ice. The denatured DNA is placed in the tube which contains the buffer solution of dATP, dGTP, dTTP, the Klenow DNA polymerase enzyme and the random primers (Rediprime II random prime labelling system, RPN 1633, RPN 1634, Amersham pharmacia biotech). 2 μl of Redivue deoxycytidine 5′-[alpha^32P]-triphosphate (250 μCi specific activity Amersham, Orsay, France) is added to start the reaction. The reaction is carried out in the presence or absence of the compound to be tested for 10 minutes at 37°. […] 10 μL is counted in 5 ml of scintillator (Instage1 plus and scintillation counter Packard, Rungis, France). The results are expressed as a percentage of the inhibition of incorporation of the labelled nucleotide in the sample with respect to the control: 100−[(DPM of the sample treated/control DPM)×100].

HT29 tumor cells = experiment: Incorporation of tritiated thymidine into DNA of HT29 cells in exponential growth phase; assay type: cell-based, human; conditions: 3 hours treatment
Procedure: as §1
Incorporation of Thymidine Labelled with Tritium into DNA Cells in Exponential Growth Phase
HT29 cells are seeded in 96-well plates (culturPlate-96, Packard, Rungis, France) (4000 cells per well) with the medium (DME, Gibco BRL, Cergy-Pontoise, France) complemented with 10% of foetal calf serum, Gibco BRL, Cergy-Pontoise, France). On day 3, the medium is removed and replaced with medium containing the tritiated thymidine (5′-thymidine TRK.328, 1 mCi, 0.6 μCi/well, Amersham, Orsay, France) with or without the compound. The treatments are carried out for 3 hours. The medium is then removed and the cells are washed twice with 20 μl of PBS (Gibco BRL, Cergy-Pontoise, France). The lysis solution (SDS 1.25%, EDTA 5 mM) is added for 10 minutes at ambient temperature, then 75 μl of scintillating liquid (microscint 40, Packard, Rungis, France) is added. The plates are read using Topcount (Packard, Rungis, France). These tests are carried out in duplicate and the results are expressed with respect to the incorporation of the labelled nucleotide in the sample treated with the compound over the incorporation of the labelled nucleotide in the control sample (sample DPM/control DPM).

[3] = test system: DU-145 (human prostate cancer cells); experiment: Measurement of cell proliferation (WST1), DU-145; assay type: cell-based; conditions: DU-145, 96 hours treatment, read-out: IC50 inhibitory concentration, proliferation of DU-145 cell lines
Procedure: as §1, §2, §3

Compound | IC50 [1] [µM] | % inhibition of incorporation [2] [%] | incorporation of tritiated thymidine (sample dpm/control dpm) (HT29 tumor cells; 25 μg/ml) | incorporation of tritiated thymidine (sample dpm/control dpm) (HT29 tumor cells; 50 μg/ml) | incorporation of tritiated thymidine (sample dpm/control dpm) (HT29 tumor cells; 100 μg/ml) | IC50 [3] [µM]
CC1C(=O)OC2CC3(C)OC3C(O[Si](C)(C)C(C)(C)C)C(N(C)C)C3=CC(OC3=O)C21 (stereo not shown) [Example 16, 11-(tert-butyldimethylsiloxy)-12-dimethylamino-3,8-dimethyl-5,9,15-trioxatetracyclo[11.2.1.0^2,6.0^8,10]hexadec-13(16)-ene-4,14-dione] | ≤ 30 | 70 ± 8 | 0.71 | 0.58 | 0.52 | ≤ 30
C[C@H]1C(=O)O[C@H]2C[C@]3(C)O[C@@H]3[C@@H]3O[C@@H]3C3=C[C@@H](OC3=O)[C@@H]21 [Dihydromikanolide, dihydromikanolide, reference compound] | – | 77 ± 11 | 0.98 | 0.22 | 0.14 | –
